Measured values reported in patent publication US20240101538A1, “PROTEIN-PROTEIN INTERACTION MODULATORS OF AURORA KINASE A AND THEIR USE IN THE PREVENTION AND/OR TREATMENT OF CANCER” (EBERHARD KARLS UNIVERSITÄT TÜBINGEN, priority 2020, published 2024).
Read-outs that look alike come from different tables or passages of the source.

Legend:
late stage HCC = settings: patients with late stage HCC, on average; cited from earlier work
NMP53^−/− cells = test: Colony formation assay on NMP53^−/− cells; type: cell-based, murine; settings: colony formation assay; for minimal effective concentration: 5 days, read-out: EC (NMP53^−/−); for selectivity for NMP53^−/− cells: NMP53^−/− versus NMCdkn2a^ARF−/− cells
Excerpt: (§1) To evaluate the effect of small molecules equipped with R-spine interacting moieties, the inventors screened a focused library of proprietary p38a MAP-Kinase inhibitors which were equipped with R-spine interacting pharmacophores. To this end, the inventors utilized a screening system as developed in Dauch et al.^2 The screening system is based on colony formation assays of cell lines isolated from Nras-driven, Trp53-deficient murine HCCs, whose development is dependent on MYC (NMP53^−/− cells), as well as Nras-driven, Cdkn2a^ARF-deficient murine HCCs, which develop independently of MYC (NMCdkn2a^ARF−/− cells). Importantly, NMP53^−/− cells are sensitive to AURKA inhibitors, which induce a conformational shift in AURKA, whereas NMCdkn2a^ARF−/− are not sensitive to such compounds.
(§2) For Colony Formation Assays, cells were seeded at a density of 50 000 cells per 6 well and next day treated with a 2-fold dilution series of the indicated compounds or the highest corresponding DMSO concentration as control. After 5 days, the cells were fixed with a 10% formaldehyde solution for 30 min, washed once with water, stained with a 0.5% crystal violet solution for 30 min and washed twice with water. The compounds effective concentration (EC) was determined according to the lowest concentration in the dilution series, that inhibited cell growth substantially. The resulting benzamide containing hit structure 1, with a twofold selectivity towards NMP53^−/− cells (effective concentration on NMP53^−/− cells (EC): 2 μM, EC on Cdkn2a^ARF−/−: 4 μM, FIG. 1), served as the inventors' starting point for further compound development.

NMCdkn2a^ARF−/− cells = test: Colony formation assay on NMCdkn2a^ARF−/− cells; type: cell-based, murine; settings: 5 days, read-out: EC (NMCdkn2a^ARF−/−)
Excerpt: as §1, §2

AURKA = AURKA (Homo sapiens (Human), UniProt O14965); test: Radioisotope filter binding assay (HotSpotSM; ReactionBiology) for AURKA kinase inhibition; type: biochemical
AURKA, sequence (O14965 whole entry): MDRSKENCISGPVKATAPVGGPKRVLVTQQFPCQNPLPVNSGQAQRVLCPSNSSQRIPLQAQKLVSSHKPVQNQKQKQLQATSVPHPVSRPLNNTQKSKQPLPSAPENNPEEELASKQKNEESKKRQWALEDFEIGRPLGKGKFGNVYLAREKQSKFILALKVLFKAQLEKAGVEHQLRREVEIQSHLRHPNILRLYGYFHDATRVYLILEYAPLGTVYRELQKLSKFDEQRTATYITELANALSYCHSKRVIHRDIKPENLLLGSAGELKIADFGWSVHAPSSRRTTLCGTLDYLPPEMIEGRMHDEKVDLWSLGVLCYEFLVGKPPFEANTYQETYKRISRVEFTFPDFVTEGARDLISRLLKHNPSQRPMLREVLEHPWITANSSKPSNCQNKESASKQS
Excerpt: Table 2 summarizes the EC values of different compounds of this invention determined by colony formation assays on NMP53^−/− and NMCdkn2a^ARF−/− cells, as well as the corresponding IC50 values for the kinase inhibition of AURKA, determined by radioisotope filter binding assay (HotSpotSM; ReactionBiology). Most compounds further show a strong selectivity for NMP53^−/− cells, which is indicated by a lower EC concentration of a particular compound required for inhibiting cell growth of NMP53^−/− cells compared to NMCdkn2a^ARF−/− cells.

MYC-AURKA interaction = MYC-AURKA interaction (Mus musculus (Mouse), UniProt P97477); test: Proximity ligation assay (PLA) for MYC and AURKA in NMP53^−/− cells; type: cell-based, murine; settings: 24 h after treatment
MYC-AURKA interaction, sequence (P97477 whole entry): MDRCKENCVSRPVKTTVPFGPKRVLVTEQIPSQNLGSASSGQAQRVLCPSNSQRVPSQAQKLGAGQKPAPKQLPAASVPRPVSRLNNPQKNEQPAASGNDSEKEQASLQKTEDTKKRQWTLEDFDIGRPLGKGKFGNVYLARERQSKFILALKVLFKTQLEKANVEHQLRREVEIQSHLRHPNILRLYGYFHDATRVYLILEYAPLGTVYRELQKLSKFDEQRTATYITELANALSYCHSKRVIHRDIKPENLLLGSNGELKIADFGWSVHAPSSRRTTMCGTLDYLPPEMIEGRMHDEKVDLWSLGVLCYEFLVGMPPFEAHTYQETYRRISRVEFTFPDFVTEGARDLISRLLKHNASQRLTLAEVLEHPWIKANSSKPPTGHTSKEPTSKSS
Experimental: To examine whether this MYC degradation is associated with MYC-AURKA PPI disruption, the inventors performed proximity ligation assays (PLA) in NMP53^−/− cells. For Proximity Ligation Assay (PLA), 50 000 cells were seeded on 12 mm glass slides placed in 6 well plates. On the next day, the cells were treated with the indicated compounds or the corresponding DMSO concentration for 2 h (compound 2c [N-(5-((4-(1H-pyrazole-4-yl)benzyl)amino)-2-fluorophenyl)-3-(furan-2-yl)propanamide] and compound 3a [N-(2-fluoro-5-((4-(1-methyl-1H-pyrazole-4-yl)benzyl)amino)phenyl)-3-(furan-2-yl)propanamide]) or 24 h (alisertib) and fixed for 10 min in 100% MeOH at −20° C. The glass slides were removed from the 6 well plates and the cells permeabilized with TBS+0.3% Triton X-100 for 5 min. After washing with PBS and blocking with 5% BSA in TBS+0.05% Tween for 30 min, the slides were incubated with MYC (Abeam ab32072, 1:200) and AURKA (Abcam ab13824, 1:200) specific antibodies in 1% BSA in TBS+0.05% Tween for 120 min at RT and washed 3 times with PBS for 5 min, wherein the MYC/TPX2 and AURKA specific antibodies are derived from a different species. After a 20 min pre-incubation of two PLA probes, directed against either species of the MYC/TPX2 and AURKA specific antibodies, at RT (DUO92001 and DUO92005 Sigma Aldrich, diluted 1:10 in 1% BSA in TBS+0.05% Tween), the slides were incubated with the probes for 60 min at 37° C. in a humidified chamber. The slides were washed 3 times with 1× wash buffer A (Sigma Aldrich DUO82049) for 5 min and incubated with the ligase solution (ligase diluted 1:40 in 5× ligase buffer and ddH2O, Sigma Aldrich DUO92008) for 60 min at 37° C. in a humidified chamber. […] The foci per cell were counted in a way that the cytoplasmic foci are counted to the cell with the closest nucleus (DAPI). Significance was calculated with the GraphPad Prism 8.4.0 software (GraphPad Software, La Jolla, CA) by using the nonparametric Mann Whitney test.

[1] = Mus musculus, 120 h, lowest concentration of 2-fold dilution series that inhibited cell growth substantially

SMILES | minimal effective concentration (NMP53^−/− cells; Mus musculus, 120 h) | minimal effective concentration (NMCdkn2a^ARF−/− cells; Mus musculus, 120 h) | IC50 (AURKA) | other results
CNC(=O)c1cc(Oc2ccc(NC(=O)Nc3ccc(Cl)c(C(F)(F)F)c3)cc2)ccn1 [sorafenib] |  |  |  | prolonged survival (late stage HCC): 2.8 months
Cn1cc(-c2ccc(CNc3ccc(F)c(NC(=O)/C=C/c4ccco4)c3)cc2)cn1 [Compound 107r, (E)-N-(2-fluoro-5-((4-(1-methyl-1H-pyrazol-4-yl)benzyl)amino)phenyl)-3-(furan-2-yl)acrylamide] | 0.062 µM | > 0.25 µM | > 10 µM | 
COc1cc(Nc2ncc3c(n2)-c2ccc(Cl)cc2C(c2c(F)cccc2OC)=NC3)ccc1C(=O)O [alisertib, reference compound] |  |  |  | reduction of the MYC-AURKA interaction compared to DMSO (MYC-AURKA interaction): 60%
Cn1cc(-c2ccc(CNc3ccc(F)c(NC(=O)CCc4ccsc4)c3)cc2)cn1 [Compound 107p, N-(2-fluoro-5-((4-(1-methyl-1H-pyrazol-4-yl)benzyl)amino)phenyl)-3-(thiophen-3-yl)propanamide] | 0.062 µM | > 0.25 µM | > 10 µM | 
Cn1cc(-c2ccc(CNc3ccc(F)c(NC(=O)CCc4cccs4)c3)cc2)cn1 [Compound 107o, N-(2-fluoro-5-((4-(1-methyl-1H-pyrazol-4-yl)benzyl)amino)phenyl)-3-(thiophen-2-yl)propanamide] | 0.125 µM | 1 µM | > 10 µM | 
O=C(CCc1ccccc1)Nc1cc(NCc2ccc(-c3cn[nH]c3)cc2)ccc1F [Compound 95b, N-(5-((4-(1H-Pyrazol-4-yl)benzyl)amino)-2-fluorophenyl)-3-phenylpropanamide] |  | 2 µM | 0.0079 µM | minimal effective concentration (NMP53^−/− cells): 0.5 µM
Cn1cc(-c2ccc(CNc3ccc(F)c(NC(=O)C=Cc4ccccc4)c3)cc2)cn1 [Compound 107s, N-(2-fluoro-5-((4-(1-methyl-1H-pyrazol-4-yl)benzyl)amino)phenyl)cinnamamide] | 0.5 µM | > 1 µM | > 10 µM | 
Cn1cc(-c2ccc(CNc3ccc(F)c(NC(=O)CCc4ccoc4)c3)cc2)cn1 [Compound 107n, N-(2-fluoro-5-((4-(1-methyl-1H-pyrazol-4-yl)benzyl)amino)phenyl)-3-(furan-3-yl)propanamide] | 0.062 µM | > 0.25 µM | > 10 µM | 
Cc1ccc(CCC(=O)Nc2cc(NCc3ccc(-c4cnn(C)c4)cc3)ccc2F)o1 [Compound 107h, N-(2-fluoro-5-((4-(1-methyl-1H-pyrazol-4-yl)benzyl)amino)phenyl)-3-(5-methylfuran-2-yl)propanamide] | 0.125 µM | 1 µM |  | 
O=C(CCc1ccccc1)Nc1cc(NCc2ccc(-c3cn[nH]c3)cc2)ccc1F [Compound 2a, N-(5-((4-(1H-pyrazole-4-yl)benzyl)amino)-2-fluorophenyl)-3-phenylpropanamide] |  |  | 6.9 µM | minimal effective concentration (NMP53^−/− cells; [1]): 0.5 µM; selectivity for NMP53^−/− cells (NMP53^−/− cells): 4 fold; minimal effective concentration (NMP53^−/− cells): >4 µM; minimal effective concentration (NMCdkn2a^ARF−/− cells): >4 µM; minimal effective concentration (NMCdkn2a^ARF−/− cells; [1]): 2 µM
O=C(Cc1ccccc1)Nc1cc(NCc2cc(-c3cc4cccnc4[nH]3)ccn2)ccc1F [Compound 18c, N-(5-(((4-(1H-Pyrrolo[2,3-b]pyridin-2-yl)pyridin-2-yl)methyl)amino)-2-fluorophenyl)-2-phenylacetamide] | 0.25 µM | 0.5 µM | > 10 µM | 
O=C(CCc1ccco1)Nc1cc(NCc2ccc(-c3cn[nH]c3)nc2)ccc1F [Compound 127e, N-(5-(((6-(1H-Pyrazol-4-yl)pyridin-3-yl)methyl)amino)-2-fluorophenyl)-3-(furan-2-yl)-propanamide] | 0.5 µM | > 2 µM |  | 
CCn1cc(-c2ccc(CNc3ccc(F)c(NC(=O)CCc4ccco4)c3)cc2)cn1 [Compound 3b, N-(5-((4-(1-ethyl-1H-pyrazole-4-yl)benzyl)amino)-2-fluorophenyl)-3-(furan-2-yl)propanamide] | 0.125 µM | 0.25 µM |  | minimal effective concentration (NMP53^−/− cells; [1]): 0.125 µM; selectivity for NMP53^−/− cells (NMP53^−/− cells): loss of selectivity; minimal effective concentration (NMCdkn2a^ARF−/− cells; [1]): 0.25 µM
Cn1cc(-c2ccc(CNc3ccc(F)c(NC(=O)CCc4ccco4)c3)cn2)cn1 [Compound 128e, N-(2-fluoro-5-(((6-(1-methyl-1H-pyrazol-4-yl)pyridin-3-yl)methyl)amino)phenyl)-3-(furan-2-yl)propanamide] | 0.25 µM | > 2 µM |  | 
O=C(CCc1ccco1)Nc1cc(NCc2ccc(-c3cn[nH]c3)cc2F)ccc1F [Compound 127c, N-(2-fluoro-5-((2-fluoro-4-(1H-pyrazol-4-yl)benzyl)amino)phenyl)-3-(furan-2-yl)propanamide] | 0.125 µM | 0.5 to 1 µM |  | 
Cn1cc(-c2ccc(CNc3ccc(F)c(NC(=O)CCc4ccccc4)c3)cc2)cn1 [Compound 97, N-(2-fluoro-5-((4-(1-methyl-1H-pyrazol-4-yl)benzyl)amino)phenyl)-3-phenylpropanamide] | 0.25 µM | 1 µM | 0.532 µM | 
Cn1cc(-c2ccc(CNc3ccc(F)c(NC(=O)CCc4ccco4)c3)cc2)c(N)n1 [Compound 145, N-(5-((4-(3-Amino-1-methyl-1H-pyrazol-4-yl)benzyl)amino)-2-fluorophenyl)-3-(furan-2-yl)propanamide] | 0.25 µM | > 1 µM |  | 
